Measurements from the NIST ThermoML archive (doi:10.1016/j.jct.2017.07.008).
Where “and” joins values, the source holds several entries; their conditions need not be identical. Identical values can stand only once. Numbers after ± are expanded uncertainties.

Details: for mass density / viscosity / speed of sound / vapor or sublimation pressure: Liquid; for mass density: Vibrating tube method; for surface tension liquid-gas: Drop volume; for viscosity: Capillary tube (Ostwald / Ubbelohde) method; for speed of sound: Frequency=3 MHz, Single path-length method; for vapor or sublimation pressure: Ebulliometric method (Recirculating still)

O=Cc1cccs1 [2-thiophenealdehyde]
Details | mass density | speed of sound [m/s] | viscosity [mPa·s]
313.15 K, 65000 kPa | 1238.47 ± 0.98 kg/m3 | – | –
315.65 K, 100 kPa | 1199.69 ± 0.57 kg/m3 | 1404.1 ± 0.95 | 1.528 ± 0.018
318.15 K, 100 kPa | 1197.17 ± 0.57 kg/m3 and 1197.16 ± 0.57 kg/m3 | 1395.9 ± 0.95 | 1.473 ± 0.018
318.15 K, 2000 kPa | 1198.45 ± 0.57 kg/m3 | – | –
318.15 K, 5000 kPa | 1200.45 ± 0.58 kg/m3 | – | –
318.15 K, 7000 kPa | 1201.76 ± 0.59 kg/m3 | – | –
318.15 K, 10000 kPa | 1203.7 ± 0.6 kg/m3 | – | –
318.15 K, 15000 kPa | 1206.86 ± 0.63 kg/m3 | – | –
318.15 K, 20000 kPa | 1209.92 ± 0.65 kg/m3 | – | –
318.15 K, 25000 kPa | 1212.9 ± 0.68 kg/m3 | – | –
318.15 K, 30000 kPa | 1215.8 ± 0.71 kg/m3 | – | –
318.15 K, 35000 kPa | 1218.62 ± 0.74 kg/m3 | – | –
318.15 K, 40000 kPa | 1221.37 ± 0.77 kg/m3 | – | –
318.15 K, 45000 kPa | 1224.05 ± 0.81 kg/m3 | – | –
318.15 K, 50000 kPa | 1226.67 ± 0.85 kg/m3 | – | –
318.15 K, 55000 kPa | 1229.23 ± 0.88 kg/m3 | – | –
318.15 K, 60000 kPa | 1231.73 ± 0.92 kg/m3 | – | –
318.15 K, 65000 kPa | 1234.18 ± 0.96 kg/m3 | – | –
320.65 K, 100 kPa | 1194.65 ± 0.56 kg/m3 | 1387.6 ± 0.95 | 1.418 ± 0.017
323.15 K, 100 kPa | 1192.12 ± 0.56 kg/m3 | 1379.3 ± 0.95 | 1.375 ± 0.017
323.15 K, 2000 kPa | 1193.44 ± 0.57 kg/m3 | – | –
323.15 K, 5000 kPa | 1195.49 ± 0.58 kg/m3 | – | –
323.15 K, 7000 kPa | 1196.83 ± 0.59 kg/m3 | – | –
323.15 K, 10000 kPa | 1198.82 ± 0.6 kg/m3 | – | –
323.15 K, 15000 kPa | 1202.04 ± 0.62 kg/m3 | – | –
323.15 K, 20000 kPa | 1205.17 ± 0.65 kg/m3 | – | –
323.15 K, 25000 kPa | 1208.22 ± 0.68 kg/m3 | – | –
323.15 K, 30000 kPa | 1211.17 ± 0.7 kg/m3 | – | –
323.15 K, 35000 kPa | 1214.05 ± 0.73 kg/m3 | – | –
323.15 K, 40000 kPa | 1216.86 ± 0.77 kg/m3 | – | –
323.15 K, 45000 kPa | 1219.59 ± 0.8 kg/m3 | – | –
323.15 K, 50000 kPa | 1222.26 ± 0.84 kg/m3 | – | –
323.15 K, 55000 kPa | 1224.86 ± 0.87 kg/m3 | – | –
323.15 K, 60000 kPa | 1227.41 ± 0.91 kg/m3 | – | –
323.15 K, 65000 kPa | 1229.89 ± 0.95 kg/m3 | – | –
325.65 K, 100 kPa | 1189.6 ± 0.56 kg/m3 | 1371.1 ± 0.95 | 1.325 ± 0.016
328.15 K, 100 kPa | 1187.08 ± 0.56 kg/m3 and 1187.07 ± 0.56 kg/m3 | 1362.8 ± 0.95 | 1.275 ± 0.015
328.15 K, 2000 kPa | 1188.42 ± 0.57 kg/m3 | – | –
328.15 K, 5000 kPa | 1190.52 ± 0.58 kg/m3 | – | –
328.15 K, 7000 kPa | 1191.9 ± 0.59 kg/m3 | – | –
328.15 K, 10000 kPa | 1193.93 ± 0.6 kg/m3 | – | –
328.15 K, 15000 kPa | 1197.23 ± 0.62 kg/m3 | – | –
328.15 K, 20000 kPa | 1200.43 ± 0.64 kg/m3 | – | –
328.15 K, 25000 kPa | 1203.54 ± 0.67 kg/m3 | – | –
328.15 K, 30000 kPa | 1206.56 ± 0.7 kg/m3 | – | –
328.15 K, 35000 kPa | 1209.49 ± 0.73 kg/m3 | – | –
328.15 K, 40000 kPa | 1212.35 ± 0.76 kg/m3 | – | –
328.15 K, 45000 kPa | 1215.13 ± 0.79 kg/m3 | – | –
328.15 K, 50000 kPa | 1217.85 ± 0.83 kg/m3 | – | –
328.15 K, 55000 kPa | 1220.5 ± 0.87 kg/m3 | – | –
328.15 K, 60000 kPa | 1223.09 ± 0.9 kg/m3 | – | –
328.15 K, 65000 kPa | 1225.62 ± 0.94 kg/m3 | – | –
330.65 K, 100 kPa | 1184.55 ± 0.56 kg/m3 | 1354.6 ± 0.95 | 1.233 ± 0.015
333.15 K, 100 kPa | 1182.02 ± 0.56 kg/m3 | 1346.4 ± 0.95 | 1.194 ± 0.014
333.15 K, 2000 kPa | 1183.41 ± 0.57 kg/m3 | – | –
333.15 K, 5000 kPa | 1185.56 ± 0.58 kg/m3 | – | –
333.15 K, 7000 kPa | 1186.96 ± 0.58 kg/m3 | – | –
333.15 K, 10000 kPa | 1189.04 ± 0.6 kg/m3 | – | –
333.15 K, 15000 kPa | 1192.42 ± 0.62 kg/m3 | – | –
333.15 K, 20000 kPa | 1195.69 ± 0.64 kg/m3 | – | –
333.15 K, 25000 kPa | 1198.86 ± 0.67 kg/m3 | – | –
333.15 K, 30000 kPa | 1201.94 ± 0.69 kg/m3 | – | –
333.15 K, 35000 kPa | 1204.93 ± 0.72 kg/m3 | – | –
333.15 K, 40000 kPa | 1207.85 ± 0.75 kg/m3 | – | –
333.15 K, 45000 kPa | 1210.68 ± 0.79 kg/m3 | – | –
333.15 K, 50000 kPa | 1213.45 ± 0.82 kg/m3 | – | –
333.15 K, 55000 kPa | 1216.14 ± 0.86 kg/m3 | – | –
333.15 K, 60000 kPa | 1218.77 ± 0.89 kg/m3 | – | –
333.15 K, 65000 kPa | 1221.34 ± 0.93 kg/m3 | – | –
335.65 K, 100 kPa | 1179.49 ± 0.56 kg/m3 | 1338.2 ± 0.95 | 1.155 ± 0.014
338.15 K, 100 kPa | 1176.97 ± 0.56 kg/m3 | 1330.2 ± 0.95 | 1.121 ± 0.014
338.15 K, 2000 kPa | 1178.39 ± 0.57 kg/m3 | – | –
338.15 K, 5000 kPa | 1180.59 ± 0.58 kg/m3 | – | –
338.15 K, 7000 kPa | 1182.03 ± 0.58 kg/m3 | – | –
338.15 K, 10000 kPa | 1184.16 ± 0.59 kg/m3 | – | –
338.15 K, 15000 kPa | 1187.61 ± 0.61 kg/m3 | – | –
338.15 K, 20000 kPa | 1190.94 ± 0.64 kg/m3 | – | –
338.15 K, 25000 kPa | 1194.18 ± 0.66 kg/m3 | – | –
338.15 K, 30000 kPa | 1197.32 ± 0.69 kg/m3 | – | –
338.15 K, 35000 kPa | 1200.37 ± 0.72 kg/m3 | – | –
338.15 K, 40000 kPa | 1203.34 ± 0.75 kg/m3 | – | –
338.15 K, 45000 kPa | 1206.23 ± 0.78 kg/m3 | – | –
338.15 K, 50000 kPa | 1209.04 ± 0.81 kg/m3 | – | –
338.15 K, 55000 kPa | 1211.78 ± 0.85 kg/m3 | – | –
338.15 K, 60000 kPa | 1214.46 ± 0.88 kg/m3 | – | –
338.15 K, 65000 kPa | 1217.07 ± 0.92 kg/m3 | – | –

Details | surface tension liquid-gas [mN/m] | vapor or sublimation pressure [kPa]
315.65 K | 43.89 ± 0.32 | –
318.15 K | 43.6 ± 0.32 | –
320.65 K | 43.28 ± 0.32 | –
323.15 K | 43.01 ± 0.32 | –
325.65 K | 42.68 ± 0.32 | –
328.15 K | 42.39 ± 0.32 | –
330.65 K | 42.09 ± 0.31 | –
333.15 K | 41.76 ± 0.31 | –
335.65 K | 41.46 ± 0.31 | –
336.42 K | – | 0.66 ± 0.1
338.15 K | 41.21 ± 0.31 | –
340.7 K | – | 0.85 ± 0.1
345.63 K | – | 1.135 ± 0.1
349.65 K | – | 1.4 ± 0.1
353.7 K | – | 1.725 ± 0.1
356.19 K | – | 1.915 ± 0.1
359.55 K | – | 2.265 ± 0.1
361.67 K | – | 2.55 ± 0.1
364.68 K | – | 2.925 ± 0.1
366.94 K | – | 3.265 ± 0.1
368.98 K | – | 3.6 ± 0.1
372.07 K | – | 4.14 ± 0.1
374.68 K | – | 4.645 ± 0.1
376.79 K | – | 5.065 ± 0.1
377.74 K | – | 5.3 ± 0.1
379.92 K | – | 5.8 ± 0.1
382.69 K | – | 6.5 ± 0.1
386.72 K | – | 7.585 ± 0.1
389.41 K | – | 8.415 ± 0.1
391.94 K | – | 9.285 ± 0.1
394.82 K | – | 10.41 ± 0.1
399.42 K | – | 12.29 ± 0.1
401.02 K | – | 13.11 ± 0.1
403 K | – | 14.06 ± 0.1
404.9 K | – | 15.05 ± 0.1
407.06 K | – | 16.14 ± 0.1
408.95 K | – | 17.25 ± 0.1
411.16 K | – | 18.6 ± 0.1
412.82 K | – | 19.66 ± 0.1
413.9 K | – | 20.41 ± 0.1
415.91 K | – | 21.8 ± 0.11
418.01 K | – | 23.36 ± 0.11
420.05 K | – | 24.95 ± 0.11
422.07 K | – | 26.6 ± 0.11
424.04 K | – | 28.25 ± 0.11
426.15 K | – | 30.11 ± 0.11
428.14 K | – | 32.01 ± 0.11
429.02 K | – | 32.92 ± 0.11
430.17 K | – | 34.05 ± 0.11
431.54 K | – | 35.47 ± 0.11
433.17 K | – | 37.2 ± 0.11
